Patent US20170136008A1, “OXABICYCLOHEPTANES AND OXABICYCLOHEPTENES FOR THE TREATMENT OF OVARIAN CANCER” (priority 2014, published 2017)

What was measured:
Assay type in all cases: cell-based, human
[1] = system: SKOV-3 ovarian cancer cells; assay: MTT cytotoxicity assay, SKOV-3; conditions: SK-OV3; MTT; read-out: IC50, viability of ovarian cancer cell line
[2] = system: OVCAR-8 ovarian cancer cells; assay: MTT cytotoxicity assay, OVCAR-8; conditions: OVCAR8, read-out: IC50, viability of ovarian cancer cell line
Experimental: (§1) SKOV-3 ovarian cancer cells were purchased from American Type Culture Collection (ATCC) (Manassas, Va.). SKOV-3 cells were cultured in McCoy's 5A medium (ATCC, Manassas, Va.) supplemented with 10% fetal bovine serum and 100 units/mL penicillin G sodium, 100 ug/mL streptomycin sulfate, and 292 μg/ml, L-glutamine (BioWhittaker, Wakersville, Md.). Luciferase-expressing cells were generated by infecting SKOV-3 cells with pCLNCX-luciferase retrovirus (SKOV-3-Luc) as previously reported (Wei, B. R. et al. 2009). Human OVCAR-8 ovarian cancer cells were provided by the National Cancer Institute (part of the NCI-60 collection). The PEO1, PEO4, and PEO6 ovarian cancer cell lines have previously been characterized (Langdon, S. P. et al. 1988) and were kindly provided by Dr. Ian Goldlust (National Center for Advancing Translational Sciences, Shady Grove, Md.). […]
(§2) Cell survival was measured by the 3-(4,5-dimethylthiazol-2-yl)-2,5-diphenyltetrazolium bromide (MTT, Invitrogen) assay. […] Absorbance values were determined at […] on a Spectra Max 250 spectrophotometer (Molecular Devices, Sunnyvale, Calif.). […] Cell viability was analyzed via the MTT assay as described above. […]

[3] = system: PEO1-Missense (PEO-1m) ovarian cancer cell line; assay: MTT cytotoxicity assay, PEO1-Missense; conditions: PEO1-Missense; MTT; read-out: IC50, viability of ovarian cancer cell line
Experimental: as §1, §2

[4] = system: PEO1-STOP (PEO-1s) ovarian cancer cell line; assay: MTT cytotoxicity assay, PEO1-STOP; conditions: PEO1-STOP; MTT; read-out: IC50, viability of ovarian cancer cell line
Experimental: as §1, §2

[5] = system: PEO4 ovarian cancer cell line; assay: MTT cytotoxicity assay, PEO4; conditions: PEO4; MTT; read-out: IC50, viability of ovarian cancer cell line
Experimental: as §1, §2

[6] = system: PEO6 ovarian cancer cell line; assay: MTT cytotoxicity assay, PEO6; conditions: read-out: IC50, viability of ovarian cancer cell line
Experimental: as §1, §2

[7] = system: OVCAR-8 PP2Ac shRNA-expressing cells; assay: Cell viability (MTT) assay, OVCAR-8 PP2Ac shRNA; conditions: OVCAR-8 PP2Ac shRNA
Experimental: Cell survival was measured by the 3-(4,5-dimethylthiazol-2-yl)-2,5-diphenyltetrazolium bromide (MTT, Invitrogen) assay. Cells were seeded at a density of 5,000 cells per well in 96-well plates and incubated at 37° C. in humidified 5% CO2 for 24 hours. The 50% inhibitory concentration (IC50) values were defined as the drug concentrations required to reduce cellular proliferation to 50% of the untreated control well. […] All MTT assays were carried out according to the manufacturer's instructions (Molecular Probes, Eugen, Oreg.). Absorbance values were determined at […] on a Spectra Max 250 spectrophotometer (Molecular Devices, Sunnyvale, Calif.). All MTT assays were performed in triplicate. […] Cells were treated with both drugs for 72 h. Cell viability was analyzed via the MTT assay as described above. Experiments were performed in triplicate, and the data are presented as a percent mean±SD.
To stably knockdown expression of PP2AC, a pLKO.1-puro plasmid-based […] shRNA targeting the sequence: […] (clone ID:TRCN0000002483, Sigma-Aldrich) was employed (PP2AC-shRNA). Additionally, a non-targeting shRNA plasmid (NT-shRNA) that targets no known human sequence was utilized as a control. […]

[8] = system: SKOV-3 cells; assay: Cell-cycle analysis (FACS), SKOV-3
Experimental: (§3) For cell-cycle analysis, cells were washed with PBS and fixed overnight in ice-cold 70% ethanol and stored at 4° C. Cells were then centrifuged and resuspended in 100 U RNAse (Sigma-Aldrich), and incubated at 37° C. for 20 min. Propidiumidodide solution (Invitrogen, 500 μL, 50 μg/mL in DPBS) was added to each tube and incubated in the dark at 4° C. overnight. Flow cytometry analysis was performed with CellQuestPro and data analysis was completed with ModFit LT. All data is in triplicate and presented as a percent mean±SD.

[9] = system: OVCAR-8 cells; assay: Cell-cycle analysis (FACS), OVCAR-8; conditions: cisplatin 5 μM
Experimental: as §3

## N.N.[Cl][Pt][Cl] [Cisplatin, cis-[PtCl2(NH3)2], reference compound]
[1]
  IC50: 7.6 ± 1.6 µM
[2]
  IC50: 7.2 ± 2.3 µM
[3]
  IC50: 2.1 ± 0.4 µM
[4]
  IC50: 2.3 ± 0.3 µM
[5]
  IC50: 4.3 ± 1.8 µM
[6]
  IC50: 8 ± 1.9 µM
[7]
  sensitivity to cisplatin, PP2Ac knockdown compared to non-targeted control: sensitized
[8]; 24 h, cisplatin 2 μM
  G1 (%): 23.0 ± 0.2%
  G2/M (%): 8.4 ± 0.3%
  S (%): 68.6 ± 0.1%
[8]; 24 h, cisplatin 5 μM
  G1 (%): 11.6 ± 0.5%
  G2/M (%): 13.5 ± 0.7%
  S (%): 75.2 ± 1.0%
[8]; 24 h, cisplatin 18 μM
  G1 (%): 49.8 ± 2.3%
  G2/M (%): 16.6 ± 1.3%
  S (%): 33.6 ± 1.8%
[8]; 24 h, cisplatin 18 μM, listed as cisplatin
  S (%): 33±2%
[8]; 24 h, cisplatin 20 μM
  G1 (%): 67.7 ± 1.2%
  G2/M (%): 16.3 ± 0.9%
  S (%): 16.0 ± 1.2%
[8]; 48 h, cisplatin 18 μM
  G1 (%): 40.4 ± 0.8%
  G2/M (%): 21.2 ± 1.0%
  S (%): 38.4 ± 0.5%
[9]; 24 h
  G1 (%): 4.6 ± 2.0%
  G2/M (%): 13.4 ± 0.6%
  S (%): 81.9 ± 1.6%
[9]; 48 h
  G1 (%): 0.85 ± 0.3%
  G2/M (%): 78.5 ± 2.2%
  S (%): 20.7 ± 2.1%
